According to patent US12351556B2, “Pyridin-2(1H)one derivatives, their preparation and their use for the treatment of pain” (INSTITUT NATIONAL DE LA SANTE ET DE LA RECHERCHE MEDICALE …, priority 2019, dated 2025):

Molecular target: p38α MAPK (Homo sapiens (Human), UniProt Q16539)
Assay: p38 alpha IC50
Assay type: biochemical
Conditions: p38 alpha; read-out: Mean IC50
Method: Studies were undertaken to identify the possible biological target(s) of compound 69. The activation in neurons of PK such as PKCγ, ERK or p38 MAPK can contribute to pain hypersensitivity. Therefore, it was decided to screen compound 69 toward a panel of 50 PKs that provide a representative sampling of the human kinome (FIG. 3, Table 3) (Biochem. J. 2007, 408, 297-315). In this panel, p38α MAPK was identified as the privileged target, with 19% of kinase residual activity at 10 μM compound concentration.
The selectivity of compound 69 was evaluated at 1 μM toward another panel containing all four p38 MAPK isoforms, ERK1, ERK2 as well as other protein kinases close to p38α MAPK in the kinome phylogenetic tree (FIG. 4, Table 4). […] Its IC50 toward p38α MAPK was determined, showing a value in the micromolar range (IC50=3.0±0.1 μM).

Sequence of p38α MAPK (Q16539 whole entry): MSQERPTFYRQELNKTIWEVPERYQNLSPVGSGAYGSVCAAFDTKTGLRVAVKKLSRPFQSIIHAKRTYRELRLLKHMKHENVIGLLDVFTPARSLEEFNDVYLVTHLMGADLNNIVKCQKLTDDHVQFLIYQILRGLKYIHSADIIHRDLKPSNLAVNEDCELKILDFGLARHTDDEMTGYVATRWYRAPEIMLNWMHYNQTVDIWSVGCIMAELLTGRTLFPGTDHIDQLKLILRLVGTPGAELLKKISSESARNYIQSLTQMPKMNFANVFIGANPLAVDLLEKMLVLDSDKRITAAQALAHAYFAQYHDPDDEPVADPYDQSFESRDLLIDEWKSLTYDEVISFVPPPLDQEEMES

Row | Structure (SMILES) | IC50 [µM]
1 | O=c1[nH]cc(Nc2cccc(F)c2)cc1-c1cccc2[nH]ccc12 [Compound 119, 5-((3-Fluorophenyl)amino)-3-(1H-indol-4-yl)pyridin-2(1H)-one] | 1.42
2 | O=c1[nH]cc(Nc2ccc(F)cc2)cc1-c1cccc2[nH]ccc12 [Compound 120, 5-((4-Fluorophenyl)amino)-3-(1H-indol-4-yl)pyridin-2(1H)-one] | 0.43
3 | O=c1[nH]cc(Nc2ccc(Br)cc2)cc1-c1cccc2[nH]ccc12 [Compound 143, 5-((4-Bromophenyl)amino)-3-(1H-indol-4-yl)pyridin-2(1H)-one] | 2.35
4 | COc1cccc(Nc2c[nH]c(=O)c(-c3cccc4[nH]ccc34)c2)c1 [Compound 122, 3-(1H-Indol-4-yl)-5-((3-methoxyphenyl)amino)pyridin-2(1H)-one] | 5.53
5 | O=c1[nH]cc(Nc2ccccc2Br)cc1-c1cccc2[nH]ccc12 [Compound 141, 5-((2-Bromophenyl)amino)-3-(1H-indol-4-yl)pyridin-2(1H)-one] | 2.72
6 | COc1ccccc1Nc1c[nH]c(=O)c(-c2cccc3[nH]ccc23)c1 [Compound 121, 3-(1H-Indol-4-yl)-5-((2-methoxyphenyl)amino)pyridin-2(1H)-one] | 5.25
7 | O=c1[nH]cc(Nc2ccccc2F)cc1-c1cccc2[nH]ccc12 [Compound 118, 5-((2-Fluorophenyl)amino)-3-(1H-indol-4-yl)pyridin-2(1H)-one] | 0.23
8 | Cc1ccccc1Nc1c[nH]c(=O)c(-c2cccc3[nH]ccc23)c1 [Compound 130, 3-(1H-Indol-4-yl)-5-(o-tolylamino)pyridin-2(1H)-one] | 1.06
9 | O=c1[nH]cc(Nc2cccc(Br)c2)cc1-c1cccc2[nH]ccc12 [Compound 142, 5-((3-Bromophenyl)amino)-3-(1H-indol-4-yl)pyridin-2(1H)-one] | 0.66
10 | COc1ccc(Nc2c[nH]c(=O)c(-c3cccc4[nH]ccc34)c2)cc1 [Compound 123, 3-(1H-Indol-4-yl)-5-((4-methoxyphenyl)amino)pyridin-2(1H)-one] | 3.67
11 | O=c1[nH]cc(Nc2cccc(O)c2)cc1-c1cccc2[nH]ccc12 [Compound 134, 5-((3-hydroxyphenyl)amino)-3-(1H-indol-4-yl)pyridin-2(1H)-one] | 1.04
